Results reported in US10399931B2, “Octahydroanthracene compound, preparation method and application thereof” (SHANDONG XINHUA PHARMACEUTICAL CO., LTD., priority 2016, dated 2019).

Key:
Type in all cases: in vivo
[1] = tested on: Aβ metabolizing enzymes NEP and IDE; assay: Expression of Aβ metabolizing enzymes in the brain of APP/PS1 mice
Method: After the behavioral experiment, the animals were anesthetized with an intraperitoneal injection of 3.5% chloral hydrate and cut off the heads quickly to take out the brains. The hippocampus and cortex of the brain were separated on ice, and then weighed and quickly frozen with liquid nitrogen, placed in a refrigerator at −80° C. for standby application.
The tissue lysate (5 μL PMSF protease inhibitor per mL of lysate) was added to the frozen brain tissue at a ratio of […] (6 mL/g tissue), and ultrasonically homogenized in an ice bath. After homogenization, the tissue homogenate was placed in crushed ice for 30 min, and then centrifuged at 12,000×g for 20 min at 4° C. The supernatant (about 200 μL) was taken and stored in a refrigerator at −80° C. for later use. A portion of the supernatant was taken for protein quantification.
Grayscale scanning of the X film was performed and the results were analyzed by the image analysis software of Quantity One 4.6.2. Differences and changes in the expression of the detected proteins between the groups were determined using β-actin as an internal reference. The relative value was calculated by the formula.

microglia = assay: Phagocytosis of β-amyloid protein by microglia in APP/PS1 mice
Method: • 4.3.1. Immersing the paraffin sections in xylene to dewax for 15 min, and 2 times in total; then immersing in gradient alcohols with a gradient of 100%, 100%, 95%, 90%, 85% and 75%, each for 5 min. • 4.3.2. Microwave antigen retrieval: immersing the sections in 0.01 M citrate buffer (pH 6.0), heating to boiling in a microwave oven, and repeating twice; after natural cooling, washing 2 times with PBS for 5 min each time. • 4.3.3. Blocking endogenous peroxidase: blotting around the brain tissue with filter paper, outlining the brain tissue with a PAP pen. Adding dropwise the peroxidase blocker, incubating for 10 min at room temperature, and washing 3 times with PBS for 5 min each time. • 4.3.4. Adding dropwise normal serum blocking solution diluted with 0.01M PBS at a ratio of 1:10, standing at room temperature for 20 min, shaking off the excess liquid and not washing. • 4.3.5. Adding dropwise the primary antibody diluted with 0.01 M PBS, keeping at 4° C. overnight; washing 3 times with 0.01 M PBS for 2 min each time. • 4.3.6. […] Sealing with water-soluble sealant; observing by fluorescence microscopy. […] Washing 3 times with the PBS on a shaker in a dark for 3 min each time; sealing with the water-soluble sealant, and observing by fluorescence microscope. […]

APP/PS1 mice = assay: Transmission electron microscopy of hippocampal CA1 neurons and synapses

CC1(C)CCC(C)(C)c2c1cc1c(c2NC(=O)c2ccc(NC(=O)NCCN)cc2)C(C)(C)CCC1(C)C [OAB-14, 1-(2-amino) ethyl-3-{4-[(1,1,4,4,5,5,8,8-octamethyl-1,2,3,4,5,6,7,8-octahydro-9-anthryl)carbamoyl]phenyl} urea]
Expression of Aβ metabolizing enzymes NEP and IDE in the brain [1]: increasing the expression
Phagocytosis of microglia in the central nervous system to β-amyloid protein (microglia): promoting the phagocytosis
Synaptic ultrastructure of the hippocampus (TEM) (APP/PS1 mice; 100 mg/kg group): significantly improved
Synaptic ultrastructure of the hippocampus (TEM) (APP/PS1 mice; 200 mg/kg group): significantly improved
Ultrastructure of hippocampal CA1 neurons (TEM) (APP/PS1 mice; dose-dependent, especially 200 mg/kg group): significantly improved
